Here are results for 27 molecules from patent publication US20220227761A1, “OXOACRIDINYL ACETIC ACID DERIVATIVES AND METHODS OF USE” (STINGTHERA, INC., priority 2019, published 2022).

SMILES strings stand for the structures. Values joined by “and” are separate entries in the source; they are usually repeats but may differ in a detail not shown here. Equal entries are not always repeated.

Test [1] concerns STING protein; IRF/IFN signaling in THP-1 R232 cells. Nature of the test: Cell based reporter assay, THP-1 R232 IRF-luc. As to conditions: Homo sapiens, THP1-dual-KI R232 cells, IRF luciferase reporter; for IC50: read-out: THP 1-dual-KI R232_IRF(Luciferase) IC50; for Emax: maximum measured activity, read-out: THP 1-dual-KI R232_IRF(Luciferase)_Activity Maximum measured (%). The source says: Cell reporter assays were developed to measure the ability of compounds of the application to activate the STING protein and activate both IRF/IFN and the NFkB signaling pathways in the myeloid derived cell line THP-1, which is commercially available from several suppliers. Briefly, THP-1 monocytes were transfected and selected for stable integration of 2 reporter constructs. Clones incorporating stably integrated vectors were further selected by antibiotic resistance to blastocidin and zeocin. The reporter constructs included: (1) firefly luciferase reporter gene under the control of an ISG54 promoter fused to five interferon (IFN)-stimulated response elements to measure IRF transcription factor binding activity and (2) secreted embryonic alkaline phosphatase reporter gene under transcription control of an IFN-beta minimal promoter fused to 5 copies of the NFkB consensus transcriptional response element and 3 copies of the c-Rel binding site.
The resulting THP-1 cell line was further modified to incorporate 3 amino acid point mutations (H71R A230G Q293R). This modification of the native TMEM173 gene in THP-1 cells (HAQ) was designed to produce a cell reporter that expressed the most common allelic variant in the human population (THP-1 R232, available from InvivoGen). Alternatively, the TMEM173 gene was knocked out to provide a congenic control to counter-screen for compound activation that was independent of the STING protein (THP-1 STING KO).
Once cell lines were established, reporter assay protocols were developed and optimized to screen small molecule compounds for agonist activity. Assay optimization for efficacy and Z′ value included titration of the following parameters:
• 1. Cell pre-activation with PMA • 2. Cell seeding density • 3. DMSO tolerance • 4. Media selection • 5. FBS concentration • 6. Incubation time • 7. Co-Assessment of cell viability by CTG assay • 8. Appropriate HPE and ZPE controls • 9. Dose Response Titration
• 1. No pre-activation with PMA • 2. 5×10^4 cells/well in 96 well plate format • 3. <0.5% DMSO • 4. RPMI 1640+2.5 mg/ml glucose • 5. 10% FBS • 6. 14-18 hr incubation • 7. Cell Titer Glo reagent (Promega) following supernatant removal • 8. […] 8 point, 2 fold, duplicate starting at 150 μM

Test [2] has as its target hSTING-R232 (aa140-379) (Homo sapiens, UniProt Q86WV6, H232R). Briefly: STING differential scanning fluorimetry (DSF) assay, hSTING WT. The note with it: shift in melting temperature apo vs ligand-bound.
Method: A STING DSF assay was performed to determine protein thermostability shift in response to small molecule ligand binding. A STING thermnostability shift assay based on differential scanning fluorimetry was used to measure (1) the net shift in melting temperature (ΔTm) between the apo and ligand-bound states of the STING protein and (2) the concentration of the thermal denaturation transition (EC50) as a surrogate measure of binding affinity (Kd). […] Protein in assay buffer was transferred to a 384 well plate and incubated with the hydrophobic fluorescent dye SYBR Orange. A temperature ramp was applied to the plate and the resulting dye fluorescence was plotted as a function of temperature. The first derivative of this function (dF/dT) was then used to extrapolate the melting temperature of the protein at various concentrations of compound and determine the thermal denaturation profile of a protein/compound complex.
5 μM purified Target STING Protein • 3. 8 μM Sypro Orange Dye • 4. Buffer: 100 mM NaCl, 30 mM HEPES, pH 7.5 • 5. Thermal Ramp: 0.5° C./min • 6. <1% DMSO • 7. 11 point, 2 fold dilution, duplicate, 300 μM high concentrations • 8.
For test [3], the target named is human STING protein (140-379), WT (Homo sapiens, UniProt Q86WV6, H232R). Briefly: Radiometric filtration binding competition assay (FBA), hSTING-WT. As to conditions: WT-hSWAT IC50 (μM), WT_FBA_HIS-SUMO-hSWAT; wild-type human STING; competition with [H3] 2′3′cGAMP.
human STING protein (140-379), WT, sequence (Q86WV6 140-379 H232R): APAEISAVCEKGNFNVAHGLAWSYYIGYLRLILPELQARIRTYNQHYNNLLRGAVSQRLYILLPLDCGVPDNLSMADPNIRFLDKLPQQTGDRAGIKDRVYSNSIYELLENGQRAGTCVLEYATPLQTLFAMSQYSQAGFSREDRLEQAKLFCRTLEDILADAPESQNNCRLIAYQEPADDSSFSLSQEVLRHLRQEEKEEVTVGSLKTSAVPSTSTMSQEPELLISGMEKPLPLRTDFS

hSTING-R232 (aa140-379), sequence (Q86WV6 140-379 H232R): as above

As for `COc1c(Cl)ccc2c(=O)c3ccc(F)cc3n(CC(=O)O)c12` [Compound 67], the IC50 (as a rule, the concentration needed to halve the response being measured) in test [1] was above 150 µM; in test [3] it was above 300 µM. Further, the “WT_DSF_hSWAT Tm Shift (° C.)” value in test [2] is recorded as “C (“C” = 2-7° C.)”.

As to `CCNc1ccc2c(=O)c3ccc(Cl)c(OC)c3n(CC(=O)O)c2c1` [Compound 68], the Emax in test [1] was above 50%. The IC50 in test [1] lay within 50 to 100 µM; in test [3], 20 to 100 µM. Besides, the “WT_DSF_hSWAT Tm Shift (° C.)” value in test [2] was “C (“C” = 2-7° C.)”.

Regarding `CN(C)c1c(Cl)ccc2c(=O)c3cc(Cl)c(Nc4c(F)cccc4F)cc3n(CC(=O)O)c12` [Compound 75], the Emax in test [1] is above 50%. Also, the IC50 is below 50 µM in test [1] and below 20 µM in test [3]. In addition, in test [2], the “WT_DSF_hSWAT Tm Shift (° C.)” value is listed as “D (“D” >7° C.)”.

Take `CN(C)c1c(Cl)ccc2c(=O)c3ccc(C4CCC4)cc3n(CC(=O)O)c12` [Compound 35]: in test [1], the Emax is above 50%. The IC50 is below 50 µM in test [1] and below 20 µM in test [3]. In addition, the “WT_DSF_hSWAT Tm Shift (° C.)” value in test [2] is recorded as “D (“D” >7° C.)”.

As for `CC/C=C(\CC)c1ccc2c(=O)c3ccc(Cl)c(N(C)C)c3n(CC(=O)O)c2c1` [Compound 19], the Emax in test [1] was above 50%. Further, the concentration for half-maximal inhibition (IC50) is below 50 µM in test [1] and below 20 µM in test [3]. Besides, the “WT_DSF_hSWAT Tm Shift (° C.)” value in test [2] is reported as “D (“D” >7° C.)”.

Turning to `Cc1ccc2c(=O)c3ccc(Cl)c(N(C)C)c3n(CC(=O)NS(C)(=O)=O)c2c1` [Compound 55], in test [1], the Emax was above 50% and the 50% inhibitory concentration (IC50) was below 50 µM. Moreover, in test [2], the “WT_DSF_hSWAT Tm Shift (° C.)” value was “D (“D” >7° C.)”. This molecule yielded an IC50 in test [3] of 20 to 100 µM.

With `Cc1cc2c(cc1Br)c(=O)c1ccc(Cl)c(N(C)C)c1n2CC(=O)O` [Compound 34], in test [1], the Emax is 5 to 25% and the IC50 was below 50 µM. The “WT_DSF_hSWAT Tm Shift (° C.)” value in test [2] was “C (“C” = 2-7° C.)”. The IC50 in test [3] lay within 20 to 100 µM.

With `CN(C)c1c(Cl)ccc2c(=O)c3ccc(C4CC4)cc3n(CC(=O)O)c12` [Compound 36], in test [1], the Emax was above 50% and the IC50 was below 50 µM. For the same molecule, the “WT_DSF_hSWAT Tm Shift (° C.)” value in test [2] is reported as “D (“D” >7° C.)”. The molecule also displayed an IC50 in test [3] below 20 µM.

In the case of `CN(C)c1c(Cl)ccc2c(=O)c3ccc(-c4ccccn4)cc3n(CC(=O)O)c12` [Compound 10], the Emax in test [1] is above 50%. The IC50 in test [1] was below 50 µM; in test [3], below 20 µM. For the same molecule, the “WT_DSF_hSWAT Tm Shift (° C.)” value in test [2] is given as “D (“D” >7° C.)”.

As to `CCc1ccc2c(=O)c3ccc(Cl)c(N(C)C)c3n(CC(=O)O)c2c1` [Compound 37], in test [1], the Emax is above 50% and the IC50 was below 50 µM. Besides, in test [2], the “WT_DSF_hSWAT Tm Shift (° C.)” value is reported as “D (“D” >7° C.)”. Also, the IC50 in test [3] was below 20 µM.

Turning to `C=C(C)c1ccc2c(=O)c3ccc(Cl)c(OC)c3n(CC(=O)O)c2c1` [Compound 65], in test [1], the Emax is above 50% and the IC50 is below 50 µM. Also, the “WT_DSF_hSWAT Tm Shift (° C.)” value in test [2] was “D (“D” >7° C.)”. Further, in test [3], the IC50 lay in the range of 20 to 100 µM.

Regarding `COc1c(Cl)ccc2c(=O)c3ccc(C4=CCN(C)CC4)cc3n(CC(=O)O)c12` [Compound 54], in test [1], the Emax lay within 5 to 25% and the IC50 is above 150 µM. Moreover, in test [2], the “WT_DSF_hSWAT Tm Shift (° C.)” value is recorded as “C (“C” = 2-7° C.)”. For the same molecule, the IC50 in test [3] is above 300 µM.

As for `CN(C)c1c(Cl)ccc2c(=O)c3ccc(-c4cnccn4)cc3n(CC(=O)O)c12` [Compound 70], in test [1], the Emax is above 50% and the IC50 was below 50 µM. The “WT_DSF_hSWAT Tm Shift (° C.)” value in test [2] is listed as “C (“C” = 2-7° C.)”. The IC50 in test [3] is below 20 µM.

For the molecule `CN(C)c1c(Cl)ccc2c(=O)c3ccc(C4=CCN(C(=O)OC(C)(C)C)C4)cc3n(CC(=O)O)c12` [Compound 25], in test [1], the Emax is above 50% and the IC50 is below 50 µM. The “WT_DSF_hSWAT Tm Shift (° C.)” value in test [2] was “D (“D” >7° C.)”. In addition, the IC50 in test [3] was below 20 µM.

For `CN(C)c1c(Cl)ccc2c(=O)c3ccc(C4=CCN(C(=O)OC(C)(C)C)CC4)cc3n(CC(=O)O)c12` [Compound 15], the Emax in test [1] was above 50%. The IC50 in test [1] is below 50 µM; in test [3], below 20 µM. Also, the “WT_DSF_hSWAT Tm Shift (° C.)” value in test [2] is listed as “D (“D” >7° C.)”.

Turning to `Cc1ccc2c(=O)c3c(O)cc(Cl)c(N(C)C)c3n(CC(=O)O)c2c1` [Compound 51], in test [1], the Emax is above 50% and the IC50 fell in the range of 100 to 150 µM. Further, the “WT_DSF_hSWAT Tm Shift (° C.)” value in test [2] is given as “D (“D” >7° C.)”. Besides, in test [3], the IC50 was 20 to 100 µM.

Consider `CN(C)c1c(Cl)ccc2c(=O)c3ccc(-c4cc[nH]c(=O)c4)cc3n(CC(=O)O)c12` [Compound 69], for which the Emax in test [1] is above 50%. The IC50 in test [1] was below 50 µM; in test [3] it was below 20 µM. Further, in test [2], the “WT_DSF_hSWAT Tm Shift (° C.)” value is on record as “D (“D” >7° C.)”.

With `CC(C)c1ccc2c(=O)c3c(O)cc(Cl)c(N(C)C)c3n(CC(=O)O)c2c1` [Compound 21], in test [1], the Emax is above 50%. Moreover, the results for the concentration for half-maximal inhibition (IC50) in test [1] and in test [3] were below 50 µM and below 20 µM, respectively. In addition, the “WT_DSF_hSWAT Tm Shift (° C.)” value in test [2] is reported as “D (“D” >7° C.)”.

Consider `COc1ccccc1Nc1ccc2c(=O)c3ccc(Cl)c(N(C)C)c3n(CC(=O)O)c2c1` [Compound 90], for which the Emax in test [1] is above 50%. The IC50 in test [1] is below 50 µM; in test [3] it was below 20 µM. Further, the “WT_DSF_hSWAT Tm Shift (° C.)” value in test [2] is listed as “D (“D” >7° C.)”.

Turning to `CN(C)c1c(Cl)ccc2c(=O)c3ccc(C(C)(C)C#N)cc3n(CC(=O)O)c12` [Compound 52], the Emax in test [1] is above 50%. The IC50 in test [1] is below 50 µM; in test [3] it was below 20 µM. The “WT_DSF_hSWAT Tm Shift (° C.)” value in test [2] was “D (“D” >7° C.)”.

For `CN(C)c1c(Cl)ccc2c1N(CC(=O)O)c1cc(Nc3ccccc3F)ccc1N2C` [Compound 78], in test [1], the Emax is above 50% and the IC50 was below 50 µM. Besides, in test [2], the “WT_DSF_hSWAT Tm Shift (° C.)” value is on record as “D (“D” >7° C.)”. In test [3], the IC50 is below 20 µM.

For `CN(C)c1c(Cl)ccc2c(=O)c3cc(Cl)c(C(C)(C)C#N)cc3n(CC(=O)O)c12` [Compound 87], in test [1], the Emax is above 50% and the IC50 is below 50 µM. For the same molecule, the “WT_DSF_hSWAT Tm Shift (° C.)” value in test [2] is given as “D (“D” >7° C.)”. In addition, the IC50 in test [3] was below 20 µM.

Take `Cc1cccn1-c1ccc2c(=O)c3ccc(Cl)c(N(C)C)c3n(CC(=O)O)c2c1` [Compound 4]: in test [1], the Emax was above 50% and the IC50 was below 50 µM. Also, in test [2], the “WT_DSF_hSWAT Tm Shift (° C.)” value was “D (“D” >7° C.)”. Further, the IC50 in test [3] is below 20 µM.

Regarding `COc1ccc2c(=O)c3ccc(Cl)c(N(C)C)c3n(CC(=O)O)c2c1` [Compound 2], in test [1], the Emax is above 50% and the IC50 is below 50 µM. Besides, the “WT_DSF_hSWAT Tm Shift (° C.)” value in test [2] is “D (“D” >7° C.)”. The molecule further displayed an IC50 in test [3] of 20 to 100 µM.

Turning to `CCC(C)(C)c1ccc2c(=O)c3ccc(Cl)c(N(C)C)c3n(CC(=O)O)c2c1` [Compound 22], in test [1], the Emax is above 50% and the half-inhibitory concentration (IC50) is 50 to 100 µM. For the same molecule, the “WT_DSF_hSWAT Tm Shift (° C.)” value in test [2] was “D (“D” >7° C.)”. In test [3], this molecule registered an IC50 below 20 µM.

Consider `CN(C)c1c(Cl)ccc2c(=O)c3ccc(-n4cccn4)cc3n(CC(=O)O)c12` [Compound 6], for which, in test [1], the Emax was above 50%. Besides, the half-maximal inhibitory concentration (IC50) in test [1] was below 50 µM; in test [3], below 20 µM. Besides, in test [2], the “WT_DSF_hSWAT Tm Shift (° C.)” value is listed as “D (“D” >7° C.)”.

Turning to `Cc1ccc2c(c1)c(=O)c1ccc(Cl)c(N(C)C)c1n2CC(=O)O` [Compound 31], the Emax in test [1] was above 50%. Also, the IC50 is 50 to 100 µM in test [1]; 100 to 300 µM and 20 to 100 µM in test [3]. For the same molecule, the “WT_DSF_hSWAT Tm Shift (° C.)” value in test [2] is on record as “C (“C” = 2-7° C.)”.
